{"source": "patent US12461089B2", "about": "“Olfactory receptor involved in the perception of musk fragrance and the use thereof” (ChemoSensoryX Biosciences SA, priority 2017, dated 2025)", "assay_type_in_all_cases": "cell-based", "key": {"OR5AN1": {"target": "T1, OR5AN1 (Homo sapiens, UniProt Q8NGI8, E89G)", "T1 construct": "expressed in transfected cells; host or cells: HEK293T-RTP1A1/RTP2", "T1 sequence (Q8NGI8 1-311 E89G)": "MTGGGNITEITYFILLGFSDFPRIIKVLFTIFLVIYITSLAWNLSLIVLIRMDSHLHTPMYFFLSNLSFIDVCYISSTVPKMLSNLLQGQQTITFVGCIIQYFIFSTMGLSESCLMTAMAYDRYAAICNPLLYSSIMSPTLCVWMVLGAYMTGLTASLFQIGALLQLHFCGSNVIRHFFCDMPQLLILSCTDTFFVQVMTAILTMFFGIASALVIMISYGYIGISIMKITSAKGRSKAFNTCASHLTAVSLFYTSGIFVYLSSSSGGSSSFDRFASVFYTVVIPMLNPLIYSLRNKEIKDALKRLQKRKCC", "test": "Luciferase reporter concentration-response analysis on OR5AN1"}, "OR2A5": {"target": "T2, OR2A5 (Homo sapiens, UniProt Q96R48, A202S/A255T/I126V)", "T2 construct": "expressed in transfected cells; host or cells: HEK293T-RTP1A1/RTP2", "T2 sequence (Q96R48 1-311 I126V/A202S/A255T)": "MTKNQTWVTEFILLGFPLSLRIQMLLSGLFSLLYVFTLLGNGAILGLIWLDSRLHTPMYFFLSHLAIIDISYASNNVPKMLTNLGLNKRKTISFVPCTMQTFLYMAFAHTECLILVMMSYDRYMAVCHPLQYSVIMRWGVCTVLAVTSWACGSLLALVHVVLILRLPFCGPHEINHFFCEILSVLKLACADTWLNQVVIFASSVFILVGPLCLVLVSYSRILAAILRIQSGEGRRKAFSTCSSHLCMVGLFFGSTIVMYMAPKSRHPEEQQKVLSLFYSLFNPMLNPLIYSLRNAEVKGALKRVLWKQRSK", "test": "Luciferase reporter concentration-response analysis on OR2A5", "conditions": "CRE-luciferase", "protocol": "HEK293T-RTP1A1/RTP2 cells were maintained in minimal essential medium (EMEM, Lonza) containing 10% fetal bovine serum (M10). These cells were generated by transfecting HEK293T with an expression vector containing the sequences of the chaperone proteins RTP1A1 and RTP2 and a resistance gene to puromycin, using Lipofectamine 2000. The recombinant cell population, used in these experiments, was selected by adding 10 μg/ml of puromycin into the culture medium and subsequently subcloned (WO 2014/191047 A1).\nOdorant molecules were diluted at a concentration of 1 mole/liter (M) into dimethyl sulfoxide (DMSO) to generate stock solutions.\nFor concentration-response analysis, serial dilutions of the tested molecules were prepared from stock solutions in EMEM plated into 96-well plates.\nFor the initial deorphanisation screening and dose-response analysis, a Luciferase-based gene reporter assay (Promega, Leiden, The Nederlands) was used. Briefly, cells were platted on Poly-D-lysine-coated 96-well and transfected with a plasmid containing the CRE-luciferase and a plasmid containing the olfactory receptor. Sixteen hours after transfection, the culture medium was replaced by serum-free EMEM containing the tested compounds at a determined concentration. After four hours of incubation at 37° C. degree, cells were lysed and processed for luminescence measurement. Luminescene emission was recorded. Results were expressed as luciferase activity (Relative […] Unit (RLU)) or as percentage of the response induced by 10 μM of the adenylate cyclase activator Forskolin. An empty plasmid is used as negative control.\nIn 1998, Krautwurst and collaborators have provided a model system for the study of ligand specificity and structure-function relationships for olfactory receptors (Krautwurst et al., 1998 Cell 95, 917-26). […] Based on their publication, a chimeric OR5A2_variant 1 olfactory receptor was created containing the TM2-TM7 amino acid sequence of OR5A2_variant 1 flanked by the N-teminal and C-terminal sequence of the olfactory receptor OR2A5 (cf. SEQ ID NO: 12). This chimeric OR5A2_variant 1 receptor shared 86 percent identity with the native OR5A2_variant 1 receptor (FIG. 6A and SEQ ID NO: 10).\nTo test if the amino acids substitution could impact the musk sensitivity, and specificity and to validate the Krautwurst's model, luciferase assays were performed as described previously after transfection of the chimeric OR5A2_variant 1. Cells were treated with semi-logarithmic serial dilutions of musk compounds from the four structurally different groups described earlier."}, "OR11A1": {"target": "T3, OR11A1 (Homo sapiens, UniProt Q9GZK7)", "T3 construct": "expressed in transfected cells; host or cells: HEK293T-RTP1A1/RTP2", "T3 sequence (Q9GZK7 1-315)": "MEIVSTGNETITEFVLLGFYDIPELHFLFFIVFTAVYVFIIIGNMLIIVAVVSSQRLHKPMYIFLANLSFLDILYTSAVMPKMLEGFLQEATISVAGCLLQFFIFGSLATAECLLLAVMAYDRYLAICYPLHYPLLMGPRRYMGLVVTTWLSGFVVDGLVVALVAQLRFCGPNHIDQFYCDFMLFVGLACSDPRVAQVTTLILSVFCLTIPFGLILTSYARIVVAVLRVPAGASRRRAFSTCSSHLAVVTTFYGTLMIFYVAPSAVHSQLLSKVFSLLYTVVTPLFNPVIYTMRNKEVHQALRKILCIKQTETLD", "test": "Luciferase reporter concentration-response analysis on OR11A1"}, "[1]": {"conditions": "concentration-response analysis, luciferase reporter, values given as negative (log) numbers, Non Active = no activation after testing, read-out: calculated EC50, OR5AN1 (converted)"}}, "note": "Read-outs that look alike come from different tables or passages of the source.", "data": [{"smiles": "O=C1CCC/C=C\\CCCCCCCCCC1", "note": "[Velvione]", "values": [{"measurement": "EC50", "setting": "OR5AN1; [1]", "result": 49, "unit": "µM"}, {"measurement": "activation of OR2A5, concentration-response", "setting": "OR2A5", "result": "but not the OR2A5"}]}, {"smiles": "Cc1c([N+](=O)[O-])c(C)c([N+](=O)[O-])c(C(C)(C)C)c1[N+](=O)[O-]", "note": "[Musk Xylene, 1-tert-butyl-3,5-dimethyl-2,4,6-trinitrobenzene]", "values": [{"measurement": "EC50", "setting": "OR5AN1", "result": 0.661, "unit": "µM"}, {"measurement": "EC50", "setting": "OR11A1", "result": 1.86, "unit": "µM"}, {"measurement": "activation of OR2A5, concentration-response", "setting": "OR2A5", "result": "but not the OR2A5"}]}, {"smiles": "CC(=O)c1c(C)c([N+](=O)[O-])c(C(C)(C)C)c([N+](=O)[O-])c1C", "note": "[Musk Ketone, 4-tert-butyl-2,6-dimethyl-3,5-dinitroacetophenone]", "values": [{"measurement": "EC50", "setting": "OR5AN1; [1]", "result": 0.288, "unit": "µM"}, {"measurement": "activation of OR2A5, concentration-response", "setting": "OR2A5", "result": "but not the OR2A5"}]}]}
